# Test results as given in PMC10458514, “Structure–Activity Relationship Studies on 6-Chloro-1-phenylbenzazepines Leads to the Identification of a New Dopamine D1 Receptor Antagonist” (Molecules, 2023).
# Several values for one entry are separate records, joined by “and”; a condition that tells them apart may be missing. Equal entries are not always repeated. Where two headings read alike, the source gives them in different places.
# What was measured:
# [1] = target: T1, D1R (dopamine D1 receptor) (Homo sapiens, UniProt P21728); assay: biochemical; conditions: [3H]SCH23390 radioligand, triplicate, na = not active (<50% inhibition in a primary assay when tested at 10 µM)
# [2] = target: T1, D1R (dopamine D1 receptor); conditions: for Selectivity D5/D1: ratio of Ki D5R to Ki D1R
# [3] = target: T2, D5R (dopamine D5 receptor) (Homo sapiens, UniProt P21918); conditions: read-out: Ki D5R; [3H]SCH23390 radioligand; triplicate; na = not active (<50% inhibition in a primary assay when tested at 10 µM)
# D1R [4] = target: T3, D1R (Homo sapiens, UniProt P21728); conditions: cited from earlier work
# T3 construct: Eurofins Discover X
# D5R = conditions: cited from earlier work
# [5] = target: T2, D5R (dopamine D5 receptor); assay: biochemical; conditions: [3H]SCH23390 radioligand, triplicate, na = not active (<50% inhibition in a primary assay when tested at 10 µM)
# D1R [6] = target: T3, D1R; assay: D1R cAMP functional assay, agonist format (Eurofins DiscoverX HitHunter); type: cell-based; conditions: agonist mode
# Procedure: (§1) In the agonist format, cells were first incubated with sample to induce a response. Then, the media was aspirated from the cells and replaced with 15 μL 2:1 HBSS/10 mM Hepes: cAMP XS + Ab reagent. Sample stocks were diluted to generate 4X sample in assay buffer. […] The final assay concentration used was 1%. In antagonist mode, the cells were pre-incubated with a sample followed by agonist challenge at the EC80 concentration. The media was aspirated from cells and replaced with 10 μL 2:1 HBSS/10 mM Hepes: cAMP XS + Ab reagent. […] For agonist and antagonist assays, signal detection was performed as follows. […] This was followed by incubation with 20 μL cAMP XS + EA reagent for 3 h at room temperature. The microplates were read following signal generation with a PerkinElmer Envision™ instrument for chemiluminescent signal detection.
# D1R [7] = target: T3, D1R; assay: D1R cAMP functional assay, antagonist format (Eurofins DiscoverX HitHunter); type: cell-based; conditions: antagonist mode; for Max Response, antagonist format: agonist challenge at EC80, in % (unit assumed)
# Procedure: as §1
# [8] = [3H]SCH23390 radioligand, triplicate, na = not active (<50% inhibition in a primary assay when tested at 10 µM)
# T1 sequence (P21728 whole entry): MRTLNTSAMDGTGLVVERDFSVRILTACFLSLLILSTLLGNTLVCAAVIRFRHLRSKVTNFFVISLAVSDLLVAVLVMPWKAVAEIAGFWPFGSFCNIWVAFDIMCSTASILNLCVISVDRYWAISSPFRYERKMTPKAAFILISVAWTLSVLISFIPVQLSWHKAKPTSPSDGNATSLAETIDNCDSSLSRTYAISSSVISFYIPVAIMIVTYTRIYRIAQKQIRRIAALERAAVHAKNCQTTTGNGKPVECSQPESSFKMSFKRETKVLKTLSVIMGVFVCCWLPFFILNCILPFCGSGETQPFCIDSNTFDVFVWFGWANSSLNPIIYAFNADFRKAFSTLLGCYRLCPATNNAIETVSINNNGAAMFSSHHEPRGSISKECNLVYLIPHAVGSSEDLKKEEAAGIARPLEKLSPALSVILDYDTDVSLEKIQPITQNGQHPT
# T3 sequence (P21728 whole entry): as above
# T2 sequence (P21918 whole entry): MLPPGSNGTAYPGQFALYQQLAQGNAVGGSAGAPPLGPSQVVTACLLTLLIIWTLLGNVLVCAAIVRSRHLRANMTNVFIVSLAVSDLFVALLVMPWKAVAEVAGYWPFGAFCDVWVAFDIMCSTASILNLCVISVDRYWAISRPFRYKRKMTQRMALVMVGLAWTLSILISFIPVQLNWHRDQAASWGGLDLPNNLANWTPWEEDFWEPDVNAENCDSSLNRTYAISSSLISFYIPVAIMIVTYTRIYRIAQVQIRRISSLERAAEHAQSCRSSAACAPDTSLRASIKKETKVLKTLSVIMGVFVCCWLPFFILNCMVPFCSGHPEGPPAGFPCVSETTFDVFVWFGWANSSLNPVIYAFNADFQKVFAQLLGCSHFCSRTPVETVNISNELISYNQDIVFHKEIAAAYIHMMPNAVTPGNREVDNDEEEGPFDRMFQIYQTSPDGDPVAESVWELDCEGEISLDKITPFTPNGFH
Compound,melting point [°C],Ki [1],other results
"CN1CCc2c(cc(NC(N)=O)c(O)c2Cl)C(c2ccccc2)C1 (centres unmarked) [Compound 23a, 1-(9-chloro-8-hydroxy-3-methyl-5-phenyl-2,3,4,5-tetrahydro-1H-benzo[d]azepin-7-yl)urea]",141 to 142.1,1762 ± 17.6 nM,
"N-(9-chloro-8-hydroxy-3-methyl-5-phenyl-2,3,4,5-tetrahydro-1H-benzo[d]azepin-7-yl)methanesulfonamide [Compound 22]",,,"Selectivity D5/D1 [2]: 1.5; Ki ([2]; read-out: Ki D1R, [3H]SCH23390 radioligand, triplicate, na = not active (<50% inhibition in a primary assay when tested at 10 µM)): 113 nM and 114 nM; Ki [3]: 166 ± 6.8 nM"
"COc1ccc(C2CNCCc3c2ccc(OC)c3Cl)cc1 (centres unmarked) [Compound 10c, 6-chloro-7-methoxy-1-(4-methoxyphenyl)-2,3,4,5-tetrahydro-1H-benzo[d]azepine]",151.3 to 152.7,,
C=CCN1CCc2c(cc(O)c(O)c2Cl)C(c2cccc(C)c2)C1 (centres unmarked) [SKF 83822],,,Ki (D1R [4]): 0.2 nM; Ki (D5R): 0.3 nM
"Oc1ccc2c(c1Cl)CCNCC2c1ccccc1 (centres unmarked) [Compound 11a, 6-chloro-1-phenyl-2,3,4,5-tetrahydro-1H-benzo[d]azepin-7-ol]",134.6 to 135.8,,"Ki D1R [2, 8]: no D1R affinity; Ki [5]: 470 nM"
"Cc1cccc(C2CN(C)CCc3c2ccc(O)c3Cl)c1 (centres unmarked) [Compound 15b, 6-chloro-3-methyl-1-(m-tolyl)-2,3,4,5-tetrahydro-1H-benzo[d]azepin-7-ol]",142.6 to 144,78 nM and 77.9 nM,Selectivity D5/D1 [2]: 2.1; Ki [5]: 165 ± 4.9 nM
"O=[N+]([O-])c1cc2c(c(Cl)c1O)CCNCC2c1ccccc1 (centres unmarked) [Compound 24a, 6-chloro-8-nitro-1-phenyl-2,3,4,5-tetrahydro-1H-benzo[d]azepin-7-ol]",201.4 to 202.8,,"Ki D1R [2, 8]: no affinity"
"Cc1cccc(C2CN(C)CCc3c2cc(NC(N)=O)c(O)c3Cl)c1 (centres unmarked) [Compound 23b, 1-(9-chloro-8-hydroxy-3-methyl-5-(m-tolyl)-2,3,4,5-tetrahydro-1H-benzo[d]azepin-7-yl)urea]",184.6 to 186.1,,
"C=CCN1CCc2c(ccc(O)c2Cl)C(c2cccc(C)c2)C1 (centres unmarked) [Compound 14b, 3-allyl-6-chloro-1-(m-tolyl)-2,3,4,5-tetrahydro-1H-benzo[d]azepin-7-ol]",151.3 to 152.7,281 nM,Selectivity D5/D1 [2]: 2.6; Ki [5]: 741 ± 12.5 nM
"CCCC(=O)Nc1cc2c(c(Cl)c1O)CCN(C)CC2c1cccc(C)c1 (centres unmarked) [Compound 19b, N-(9-chloro-8-hydroxy-3-methyl-5-(m-tolyl)-2,3,4,5-tetrahydro-1H-benzo[d]azepin-7-yl)butyramide]",156.2 to 157.9,634 ± 12.5 nM,Selectivity D5/D1 [2]: 4.7; Ki [5]: 2960 ± 29.6 nM
"Cc1cccc(C2CN(C)CCc3c2cc(N)c(O)c3Cl)c1 (centres unmarked) [Compound 17b, 8-amino-6-chloro-3-methyl-1-(m-tolyl)-2,3,4,5-tetrahydro-1H-benzo[d]azepin-7-ol]",134.8 to 136,72 nM and 71.9 nM,Selectivity D5/D1 [2]: 2.0; Ki [5]: 146 ± 5.8 nM
C=CC(=O)Nc1cc2c(c(Cl)c1O)CCN(C)CC2c1cccc(C)c1 (centres unmarked) [Compound 21b],,4980 ± 61.3 nM,
CN1CCc2c(ccc(O)c2Cl)C(c2ccc(O)cc2)C1 (centres unmarked) [Compound 15d],,161 nM,Selectivity D5/D1 [2]: 2.6; Ki [5]: 413 ± 9.8 nM
"C=CC(=O)Nc1cc2c(c(Cl)c1O)CCN(C)CC2c1ccccc1 (centres unmarked) [Compound 21a, N-(9-chloro-8-hydroxy-3-methyl-5-phenyl-2,3,4,5-tetrahydro-1H-benzo[d]azepin-7-yl)acrylamide]",161.4 to 163.1,1500 ± 18.9 nM,
"C=CCN1CCc2c(ccc(OC)c2Cl)C(c2ccc(OC)cc2)C1 (centres unmarked) [Compound 12c, 3-allyl-6-chloro-7-methoxy-1-(4-methoxyphenyl)-2,3,4,5-tetrahydro-1H-benzo[d]azepine]",155.4 to 157.1,,
"C=CCN1CCc2c(ccc(OC)c2Cl)C(c2cccc(C)c2)C1 (centres unmarked) [Compound 12b, 3-allyl-6-chloro-7-methoxy-1-(m-tolyl)-2,3,4,5-tetrahydro-1H-benzo[d]azepine]",172.1 to 173.8,,
"CN1CCc2c(cc(N)c(O)c2Cl)C(c2ccccc2)C1 (centres unmarked) [Compound 17a, 8-amino-6-chloro-3-methyl-1-phenyl-2,3,4,5-tetrahydro-1H-benzo[d]azepin-7-ol]",137 to 138.9,210 nM,Selectivity D5/D1 [2]: 1.3; Ki [5]: 270 ± 8.4 nM

Compound,melting point [°C],Ki [1],other results
"Cc1cccc(C2CNCCc3c2cc([N+](=O)[O-])c(O)c3Cl)c1 (centres unmarked) [Compound 24b, 6-chloro-8-nitro-1-(m-tolyl)-2,3,4,5-tetrahydro-1H-benzo[d]azepin-7-ol]",188.9 to 191.2,38 nM and 38.1 nM,Selectivity D5/D1 [2]: 2.6; Ki [5]: 97.9 ± 3.6 nM
"CC(C)C(=O)Nc1cc2c(c(Cl)c1O)CCN(C)CC2c1ccccc1 (centres unmarked) [Compound 20a, N-(9-chloro-8-hydroxy-3-methyl-5-phenyl-2,3,4,5-tetrahydro-1H-benzo[d]azepin-7-yl)isobutyramide]",144.6 to 145.9,2940 ± 36.2 nM,
"Oc1ccc(C2CNCCc3c2ccc(O)c3Cl)cc1 (centres unmarked) [Compound 11d, 6-chloro-1-(4-hydroxyphenyl)-2,3,4,5-tetrahydro-1H-benzo[d]azepin-7-ol]",135.8 to 136.9,,"Ki D1R [2, 8]: did not bind to D1R"
"CN1CCc2c(ccc(O)c2Cl)C(c2ccccc2)C1 (centres unmarked) [Compound 15a, 6-chloro-3-methyl-1-phenyl-2,3,4,5-tetrahydro-1H-benzo[d]azepin-7-ol]",143.5 to 145.1,30 nM and 30.1 nM,"RC50 (EC50), agonist format (D1R [6]): No D1R agonistic activity; Max Response, agonist format (D1R [6]; in % (unit assumed)): 17.22; EC50 (D1R [6]; read-out: RC50 (EC50), agonist format): > 10 µM; Max Response, antagonist format (D1R [7]): 66.12; IC50 (D1R [7]; agonist challenge at EC80, read-out: RC50 (IC50), antagonist format): 130 nM; Selectivity D5/D1 [2]: 6 and 6.2; Ki [5]: 187 nM"
C=CCN1CCc2c(ccc(O)c2Cl)C(c2ccccc2)C1 (centres unmarked) [Compound 14a],,102 ± 5.2 nM,Selectivity D5/D1 [2]: 2.9; Ki [5]: 297 ± 19.3 nM
"COc1ccc2c(c1Cl)CCNCC2c1cccc(C)c1 (centres unmarked) [Compound 10b, 6-chloro-7-methoxy-1-(m-tolyl)-2,3,4,5-tetrahydro-1H-benzo[d]azepine]",180.4 to 181.8,,
"COc1ccc2c(c1Cl)CCN(C)CC2c1cccc(C)c1 (centres unmarked) [Compound 13b, 6-chloro-7-methoxy-3-methyl-1-(m-tolyl)-2,3,4,5-tetrahydro-1H-benzo[d]azepine]",174.5 to 176.1,,
"CC(=O)Nc1cc2c(c(Cl)c1O)CCN(C)CC2c1ccccc1 (centres unmarked) [Compound 18a, N-(9-chloro-8-hydroxy-3-methyl-5-phenyl-2,3,4,5-tetrahydro-1H-benzo[d]azepin-7-yl)acetamide]",154.4 to 156.2,,
"CCCC(=O)Nc1cc2c(c(Cl)c1O)CCN(C)CC2c1ccccc1 (centres unmarked) [Compound 19a, N-(9-chloro-8-hydroxy-3-methyl-5-phenyl-2,3,4,5-tetrahydro-1H-benzo[d]azepin-7-yl)butyramide]",148.7 to 150.1,1970 ± 41.4 nM,
"CN1CCc2cc(Cl)c(O)cc2[C@H]2c3ccccc3CC[C@@H]21 [SCH 39166, reference compound]",,,"Max Response, antagonist format (D1R [7]): 102.24"
"Cc1cccc(C2CNCCc3c2ccc(O)c3Cl)c1 (centres unmarked) [Compound 11b, 6-chloro-1-(m-tolyl)-2,3,4,5-tetrahydro-1H-benzo[d]azepin-7-ol]",122.3 to 124.2,,"Ki D1R [2, 8]: no affinity"
"COc1ccc2c(c1Cl)CCNCC2c1ccccc1 (centres unmarked) [Compound 10a, 6-chloro-7-methoxy-1-phenyl-2,3,4,5-tetrahydro-1H-benzo[d]azepine]",156.4 to 158,,
"CN1CCc2c(cc([N+](=O)[O-])c(O)c2Cl)C(c2ccccc2)C1 (centres unmarked) [Compound 16a, 6-chloro-3-methyl-8-nitro-1-phenyl-2,3,4,5-tetrahydro-1H-benzo[d]azepin-7-ol]",198.7 to 200,,"Ki D1R [2, 8]: no affinity"
"C=CCN1CCc2c(ccc(O)c2Cl)C(c2ccc(O)cc2)C1 (centres unmarked) [Compound 14d, 3-allyl-6-chloro-1-(4-hydroxyphenyl)-2,3,4,5-tetrahydro-1H-benzo[d]azepin-7-ol]",132.5 to 134.1,,"Ki D1R [2, 8]: no affinity"
"COc1ccc(C2CN(C)CCc3c2ccc(OC)c3Cl)cc1 (centres unmarked) [Compound 13c, 6-chloro-7-methoxy-1-(4-methoxyphenyl)-3-methyl-2,3,4,5-tetrahydro-1H-benzo[d]azepine]",155.4 to 157.1,,
"Cc1cccc(C2CN(C)CCc3c2cc([N+](=O)[O-])c(O)c3Cl)c1 (centres unmarked) [Compound 16b, 6-chloro-3-methyl-8-nitro-1-(m-tolyl)-2,3,4,5-tetrahydro-1H-benzo[d]azepin-7-ol]",210.4 to 212.6,4350 nM,
"CC(=O)Nc1cc2c(c(Cl)c1O)CCN(C)CC2c1cccc(C)c1 (centres unmarked) [Compound 18b, N-(9-chloro-8-hydroxy-3-methyl-5-(m-tolyl)-2,3,4,5-tetrahydro-1H-benzo[d]azepin-7-yl)acetamide]",151.6 to 152.8,1360 ± 14 nM,
